In patent US20230218631A1 (priority 2020, published 2023):

Legend:
Type in all cases: in vivo
[1] = test system: wild-type mice; test: Dependence (CIE)-induced and forced swim stress+dependence escalated ethanol drinking under systemic UNC0642; details: chronic 4 mg/kg UNC0642 for 15 days
Method: Systemic G9A inhibitor administration and dependence-potentiated and stress+dependence-potentiated drinking. […] Mice were then divided into 4 even groups. Mice were exposed to Air/No stress, Air/FSS, CIE/No Stress, or CIE/stress in a 2×2 design to assess the effects of UNC0642 on dependence drinking alone and dependence+stress. Chronic injections of either vehicle or 4 mg/kg UNC0642 were started during the “test 4” phase in FIG. 6A and continued for 15 days. Ethanol consumed was recorded daily.
Since systemic delivery of UNC0642 blocked stress-regulated ethanol drinking in mice, we tested whether systemic delivery of UNC0642 could block dependence-induced escalation of ethanol drinking also. […] Mice were then divided into 4 evenly matched groups. Mice were exposed to Air/No stress, Air/FSS, CIE/No Stress, or CIE/stress to assess the effects of UNC0642 on ethanol drinking influenced by alcohol dependence alone or stress+dependence. Chronic injections of either vehicle or 4 mg/kg UNC0642 were started during the “test 4” phase illustrated in FIG. 6A and continued for 15 days.

[2] = test system: wild-type mice (both male and female); test: Elevated plus maze (anxiety-like behavior)
Method: These same mice were tested on a 5-minute elevated plus maze protocol at 1-3 days after their final drinking session. 30-60 minutes following an i.p. injection of either 0, 1, 2, or 4 mg/kg UNC0642, mice were allowed to freely explore the open and closed arms of the elevated plus maze. Less anxious mice typically explore the open arms more quickly and spend more time exploring the open arms. […] No statistically significant effects were observed on the time spent in the open arms, as UNC0642 had no effect on open arms time in the elevated plus maze (see FIG. 7D; One-Way ANOVA, F3,42=0.7372, p=0.5359, 1 outlier removed from the 1 mg/kg group with a Grubbs test) or on the number of entries into the open arms, meaning that UNC0642 had no effect on the number of open arm entries in the elevated plus maze (FIG. 7E; One-Way ANOVA, F3,42=1.396, p=0.2573, 1 outlier removed from the 0 mg/kg group with a Grubbs test). […] Thus, in some embodiments, it can be particularly useful for treating individuals with co-morbid psychiatric diseases and/or disorders and AUD/SUD.

[3] = test system: wild-type mice (both male and female); test: Drinking in the Dark binge-like ethanol drinking; details: 2 mg/kg i.p. for 10 days, 30 min before session, 20% ethanol, both sexes
Method: Since UNC0642 blocked stress-potentiated ethanol drinking in mice, as show above, we next tested whether UNC0642 could alter binge-like ethanol drinking in both sexes. Wild-type mice (both male and female) were given ethanol for 1 week in a “Drinking in the Dark” paradigm (Rhodes et al., 2005), a well-established alcohol model that is similar to binge-drinking in humans. Both male and female mice were given a single bottle of 20% ethanol in their home cage for 2 hours per day for 3 days. No alternative bottle of water was given in this experiment. On the 4th day, the access to the bottle was extended to 4 hours to model a binge-drinking session. After the first week, mice were split into even groups and were injected with UNC0642 (2 mg/kg, i.p.) or vehicle for 10 days 30 minutes before each drinking session began. Mice were tested for changes in baseline drinking and binge drinking for 2 weeks. […] Our data detected the well-documented sex differences in alcohol intake in these assays, but there was no significant interaction between sex and UNC0642 treatment.

COc1cc2c(NC3CCN(C(C)C)CC3)nc(N3CCC(F)(F)CC3)nc2cc1OCCCN1CCCC1 [UNC0642, 2-(4,4-Difluoropiperidin-1-yl)-6-methoxy-N-[1-(propan-2-yl)piperidin-4-yl]-7-[3-(pyrrolidin-1-yl)propoxy]quinazolin-4-amine]
dependence-induced ethanol drinking during test 5 week ([1]; CIE vs Air, no stress, FIG. 6B left panel): significant reduction | stress+dependence ethanol drinking, test 5 ([1]; forced swim stress plus CIE, FIG. 6B right panel): also suppressed | time spent in the open arms of the elevated plus maze ([2]; 1, 2, 4 mg/kg i.p., FIG. 7D): no effect | number of open arm entries in the elevated plus maze ([2]; 1, 2, 4 mg/kg i.p., FIG. 7E): no effect | latency to explore the open arms of the elevated plus maze ([2]; all 3 doses (1, 2, 4 mg/kg i.p.), 30-60 min after injection, 5-minute test, both sexes, FIG. 7C): reduced the latency | single-bottle alcohol drinking, baseline 2 hour sessions ([3]; FIG. 8A): no effect | binge alcohol drinking, 4-hour binge sessions ([3]; FIG. 8B): no effect
